Measured values from patent US6649639B2, “Antipicornaviral compounds, compositions containing them, and methods for their use” (priority 1997, dated 2003).

Experiments:
[1] = system: HRV serotype 16; assay: Antirhinoviral HI-HeLa Cell Culture Assay (XTT cell protection), HRV serotype 16; assay type: cell-based, human rhinovirus; settings: HRV serotype 16, HI-HeLa cells
Experimental: (§1) In the Cell Protection Assay, the ability of compounds to protect cells against HRV infection was measured by the XTT dye reduction method. This method is described in Weislow, O. S., Kiser, R., Fine, D. L., Bader, J., Shoemaker, R. H., Boyd, M. R., J. Natl. Cancer Inst. 1989, 81, 577-586, the disclosure of which is incorporated herein by reference.
(§2) Infected or mock-infected cells were suspended at 8×10^5 cells per mL and incubated with appropriate concentrations of compounds of formula I. Two days later, XTT/PMS was added to test plates, and the amount of formazan produced was quantified spectrophotometrically at 450/650 nm. […] The therapeutic index (TI) was calculated by dividing the CC50 by the EC50.
(§3) All strains of human rhinovirus (HRV) for use in this assay were purchased from American Type Culture Collection (ATCC) except for HRV serotype-14, which was produced from the infectious cDNA clone constructed and supplied to Applicants by Dr. Robert Rueckert at the Institute for Molecular Virology, University of Wisconsin, Madison, Wis. HRV stocks were propagated, and viral assays were performed in HI-HeLa cells (ATCC). Cells were grown in Minimal Essential Medium, available from Life Technologies, with 10% fetal bovine serum. […]

[2] = system: HRV serotype 2; assay: Antirhinoviral HI-HeLa Cell Culture Assay (XTT cell protection), HRV serotype 2; assay type: cell-based, human rhinovirus; settings: HRV serotype 2, HI-HeLa cells
Experimental: as §1, §2
(§4) All strains of human rhinovirus (HRV) for use in this assay were purchased from American Type Culture Collection (ATCC) except for HRV serotype-14, which was produced from the infectious cDNA clone constructed and supplied to Applicants by Dr. Robert Rueckert at the Institute for Molecular Virology, University of Wisconsin, Madison, Wis. HRV stocks were propagated, and viral assays were performed in HI-HeLa cells (ATCC). Cells were grown in Minimal Essential Medium, available from Life Technologies, with 10% fetal bovine serum.
(§5) The compounds were tested against control compounds WIN 51711, WIN 52084, and WIN 54954, all obtained from Sterling-Winthrop Pharmaceuticals, and control compound Pirodavir, obtained from Janssen Pharmaceuticals. Antiviral data obtained for the test compounds are shown in Table 2 where all data are for HRV serotype-14 unless otherwise noted in parentheses.

[3] = system: HRV serotype 39; assay: Antirhinoviral HI-HeLa Cell Culture Assay (XTT cell protection), HRV serotype 39; assay type: cell-based, human rhinovirus; settings: HRV serotype 39, HI-HeLa cells
Experimental: as §1, §2, §3

[4] = system: HI-HeLa cells; assay: Cytotoxicity (CC50) in mock-infected HI-HeLa cells, antirhinoviral assay; assay type: cell-based
[5] = system: HRV serotype-14; assay: Antirhinoviral HI-HeLa Cell Culture Assay (XTT cell protection), HRV-14; assay type: cell-based, human rhinovirus; settings: HRV serotype-14, HI-HeLa cells
Experimental: as §1, §2, §4, §5

[6] = system: HRV serotype 10; assay: Antirhinoviral HI-HeLa Cell Culture Assay (XTT cell protection), HRV serotype 10; assay type: cell-based, human rhinovirus; settings: HRV serotype 10, HI-HeLa cells
Experimental: as §1, §2, §4, §5

[7] = system: HRV serotype 1A; assay: Antirhinoviral HI-HeLa Cell Culture Assay (XTT cell protection), HRV serotype 1A; assay type: cell-based, human rhinovirus; settings: HI-HeLa cells
Experimental: as §1, §2, §4, §5

[8] = biological target: T1, Recombinant Rhinovirus 3C protease serotype 14 (Human rhinovirus 14, UniProt P03303); assay: Inhibition of Rhinovirus Protease (FRET assay), serotype 14; assay type: biochemical, human rhinovirus (HRV) serotype 14; settings: for kobs/I: RVP serotype-14, enzyme start progress curves
T1 construct: Recombinant Rhinovirus 3C proteases from serotypes 14, 16, and 2; made in house

[9] = system: HI-HeLa cells; assay: Cytotoxicity (CC50) in uninfected HI-HeLa cells, anticoxsackieviral assay; assay type: cell-based; settings: CVA-21 assay
Experimental: The Coxsackie strain A-21 (CVA-21) was purchased from American Type Culture Collection (ATCC). Virus stocks were propagated, and antiviral assays were performed in HI-HeLa cells (ATCC). Cells were grown in Minimal Essential Medium with 10% fetal bovine serum.
The ability of compounds to protect cells against CVA-21 infection was measured by the XTT dye reduction method. This method is described in Weislow, O. S., Kiser, R., Fine, D. L., Bader, I., Shoemaker, R. H., Boyd, M. R., J. Natl. Cancer Inst. 1989, 81, 577-586, the disclosure of which is incorporated herein by reference. HI-HeLa cells were infected with CVA-21 at a multiplicity of infection (m.o.i.) of 0.05 (CVA-21) or mock-infected with medium only. Infected or uninfected cells were resuspended at 4×10^4 cells per mL and incubated with appropriate concentrations of drug. One day later, XTT/PMS was added to test plates, and the amount of formazan produced was quantified spectrophotometrically at 450/650 nm. […] The therapeutic index (Th) was calculated by dividing the CC50 by the EC50.

[10] = system: HRV serotype 89; assay: Antirhinoviral HI-HeLa Cell Culture Assay (XTT cell protection), HRV serotype 89; assay type: cell-based, human rhinovirus; settings: HRV serotype 89, HI-HeLa cells
Experimental: as §1, §2, §3

[11] = biological target: Recombinant Rhinovirus 3C protease serotype 16 (Human rhinovirus 16, UniProt Q82122); settings: RVP serotype 16; enzyme start progress curves
Experimental: (§6) Stock solutions (50 mM, in DMSO) of various compounds were prepared; dilutions were in the same solvent. […] Assays contained 2% DMSO, 50 mM tris pH 7.6, 1 mM EDTA, a compound at the indicated concentrations, approximately 1 μM substrate, and 50-100 nM protease. […] The kobs/I values were obtained from reactions initiated by addition of enzyme rather than substrate. RVP activity is measured in the fluorescence resonance energy transfer assay.
(§7) In the above table, all data are for RVP serotype-14 unless otherwise noted in parentheses. All strains of human rhinovirus (HRV) were purchased from American Type Culture Collection (ATCC) except for serotype 14, which was produced from the infectious cDNA clone constructed and supplied to Applicants by Dr. Robert Rueckert at the Institute for Molecular Virology, University of Wisconsin, Madison, Wis. The column designated INHIB represents the percent inhibition at 10 minute preincubation with 50 nM RVP prior to addition of substrate. The data in the column designated kobs/I was measured from progress curves in enzyme start experiments.

[12] = biological target: Recombinant Rhinovirus 3C protease serotype 2 (Human rhinovirus 2, UniProt P04936); settings: RVP serotype 2; enzyme start progress curves
Experimental: as §6, §7

T1 sequence (P03303 1538-1719): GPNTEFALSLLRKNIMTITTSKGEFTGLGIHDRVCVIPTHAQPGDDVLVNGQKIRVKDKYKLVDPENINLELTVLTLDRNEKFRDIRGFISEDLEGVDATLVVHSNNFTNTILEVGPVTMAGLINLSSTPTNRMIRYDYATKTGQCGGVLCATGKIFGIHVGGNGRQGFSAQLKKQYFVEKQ
Chain of Recombinant Rhinovirus 3C protease serotype 2 (P04936 1508-1690): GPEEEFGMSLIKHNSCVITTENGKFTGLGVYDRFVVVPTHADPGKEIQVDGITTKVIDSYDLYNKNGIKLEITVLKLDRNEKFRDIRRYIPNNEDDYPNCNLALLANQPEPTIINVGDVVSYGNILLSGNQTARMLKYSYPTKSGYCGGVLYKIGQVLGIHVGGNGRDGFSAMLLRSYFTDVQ
Chain of Recombinant Rhinovirus 3C protease serotype 16 (Q82122 1511-1693): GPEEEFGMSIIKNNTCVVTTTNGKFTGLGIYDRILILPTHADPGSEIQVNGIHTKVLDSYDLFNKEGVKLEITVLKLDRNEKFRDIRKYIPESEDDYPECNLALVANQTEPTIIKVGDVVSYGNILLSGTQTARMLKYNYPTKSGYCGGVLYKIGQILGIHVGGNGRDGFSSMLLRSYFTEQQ

Compound | CC50 ([4]; line of HRV serotype 1A) | CC50 ([4]; line of HRV serotype 10) | CC50 ([4]; line of HRV serotype-14) | EC50 [5] | EC50 [6] | EC50 [7] | further results
CCOC(=O)/C=C/C(CCC(N)=O)NC(=O)C(CC(=O)C(NC(=O)SC1CCCC1)C(C)C)Cc1ccc(C)cc1 [Compound 11, Ethyl-3-(CyPentylSCO-L-ValΨ[COCH2]-L-(p-CH3)Phe-L-Gln)-E-Propenoate] | > 3000 nM | > 3000 nM | > 3000 nM | 6 nM | 60 nM | 160 nM | EC50 [1]: 25 nM; EC50 [2]: 120 nM; EC50 [3]: 130 nM; CC50 ([4]; line of HRV serotype 2): > 3000 nM; CC50 ([4]; line of HRV serotype 16): > 3000 nM; CC50 ([4]; line of HRV serotype 39): > 3000 nM
CC(C)C(NC(=O)C1SCCS1)C(=O)CC(Cc1ccc(F)cc1)C(=O)NC(C=CC(=O)OCc1cccnc1)CCC(N)=O (stereo not drawn) [Compound 30] |  |  | > 100000 nM | 1500 nM |  |  | kobs/I [8]: 292,000 M^−1sec^−1
CCOC(=O)C=CC(CCC(N)=O)NC(=O)C(CC(=O)C(NC(=O)C1SCCCS1)C(C)C)Cc1ccc(F)cc1 (stereo not drawn) [Compound 31] | > 3000 nM | > 3000 nM | > 3000 nM |  | 4700 nM | 6300 nM | 
CCOC(=O)/C=C/[C@H](CCC(N)=O)NC(=O)[C@@H](CC(=O)[C@H](CC(C)C)NC(=O)SCC)Cc1ccccc1 [Compound 2, Ethyl-3-(EtSCO-L-LeuΨ[COCH2]-L-Phe-L-Gln)-E-Propenoate] |  |  | > 320000 nM | 240 nM |  |  | EC50 [2]: 1800 nM; CC50 ([4]; line of HRV serotype 2): > 320000 nM
CC(C)CC(NC(=O)SCc1ccccc1)C(=O)CC(Cc1ccccc1)C(=O)NC(C=CC(=O)N1CCc2ccccc21)CCC(N)=O [Compound 3, (2,3-Dihydroindole)-3-(BnSCO-L-LeuΨ[COCH2]-L-Phe-L-Gln)-E-Propenamide] |  |  |  |  |  |  | Ki [8]: > 7000 nM
CC(C)C(NC(=O)SC1CCCC1)C(=O)CC(Cc1ccc(F)cc1)C(=O)NC(C=CC(=O)OCCO)CCC(N)=O (stereo not drawn) [Compound 33] | > 32000 nM | > 32000 nM | > 32000 nM | 510 nM | 1600 nM | 1700 nM | kobs/I [8]: 281,000 M^−1sec^−1
CCOC(=O)/C=C/C(CCC(N)=O)NC(=O)C(CC(=O)C(NC(=O)SC1CCCC1)C(C)C)Cc1ccccc1 [Compound 7, Ethyl-3-(CyPentylSCO-L-ValΨ[COCH2]-L-Phe-L-Gln)-E-Propenoate] |  | > 10000 nM | > 10000 nM | 22 nM | 35 nM |  | EC50 [2]: 100 nM; EC50 [3]: 130 nM; CC50 ([4]; line of HRV serotype 2): > 10000 nM; CC50 ([4]; line of HRV serotype 39): > 10000 nM; CC50 ([4]; line of HRV serotype 89): > 10000 nM; CC50 [9]: > 10000 nM; EC50 [10]: 4 nM
CCOC(=O)/C=C/C(CCC(N)=O)NC(=O)C(CC(=O)C(CC(C)C)NC(=O)SCc1ccccc1)Cc1ccccc1 [Compound 6, Ethyl-3-(BnSCO-L-LeuΨ[COCH2]-L-Phe-L-Gln)-E-Propenoate] |  |  | > 100000 nM | 680 nM |  |  | 
CC(C)C(NC(=O)SC(C)(C)C)C(=O)CC(Cc1ccc(F)cc1)C(=O)NC(C=CC(=O)OCc1cccnc1)CCC(N)=O (stereo not drawn) [Compound 32] | > 32000 nM | > 32000 nM | > 32000 nM | 400 nM | 1900 nM | 2200 nM | kobs/I [8]: 58,000 M^−1sec^−1
CCOC(=O)/C=C/C(CCC(N)=O)NC(=O)C(CC(=O)C(CC(C)C)NC(=O)OCc1ccccc1)Cc1ccccc1 [Compound 1, Ethyl-3-(CBZ-L-LeuΨ[COCH2]-L-Phe-L-Gln)-E-Propenoate] |  |  | > 320000 nM | 360 nM |  |  | kobs/I [8]: 17,380 M^−1sec^−1; kobs/I [11]: 3,880 M^−1sec^−1; kobs/I [12]: 2,242 M^−1sec^−1
CCOC(=O)C=CC(CCC(N)=O)NC(=O)C(CC(=O)C(NC(=O)SC(C)(C)C)C(C)C)Cc1ccc(F)cc1 (stereo not drawn) [Compound 26] | > 10000 nM | > 10000 nM | > 10000 nM | 50 nM | 550 nM |  | 
CCOC(=O)/C=C/C(CCC(N)=O)NC(=O)C(CC(=O)C(NC(=O)SCc1ccccc1)C(C)C)Cc1ccccc1 [Compound 5, Ethyl-3-(BnSCO-L-ValΨ[COCH2]-L-Phe-L-Gln)-E-Propenoate] |  |  | > 320000 nM | 190 nM |  |  | 
CCOC(=O)C=CC(CCC(N)=O)NC(=O)C(CC(=O)C(NC(=O)C1SCCS1)C(C)C)Cc1ccc(F)cc1 (stereo not drawn) [Compound 27] | > 1000 nM | > 1000 nM | > 1000 nM |  | 3300 nM |  | 
Ethyl-3-(CyPentylSCO-L-CyhexΨ[COCH2]-L-(p-F)Phe-L-Gln)-E-Propenoate [Compound 24] |  |  |  | 32 nM |  |  | 
CC(C)C(NC(=O)SC1CCCC1)C(=O)CC(Cc1ccc(F)cc1)C(=O)NC(C=CC(=O)OCc1cccnc1)CCC(N)=O (stereo not drawn) [Compound 28] | > 10000 nM | > 10000 nM | > 10000 nM |  | 1000 nM | 600 nM | 
CCOC(=O)C=CC(CCC(N)=O)NC(=O)C(CC(=O)C(NC(=O)c1cc(C)on1)C(C)C)Cc1ccc(F)cc1 (stereo not drawn) [Compound 34] | > 3000 nM | > 3000 nM | > 3000 nM |  | 400 nM | 300 nM | 
CCOC(=O)/C=C/[C@H](CCC(N)=O)NC(=O)[C@@H](CC(=O)[C@@H](NC(=O)SCC)C(C)C)Cc1ccccc1 [Compound 4, Ethyl-3-(EtSCO-L-ValΨ[COCH2]-L-Phe-L-Gln)-E-Propenoate] |  |  | > 320000 nM | 100 nM |  |  | EC50 [2]: 500 nM; CC50 ([4]; line of HRV serotype 2): > 320000 nM
Cc1cc(CCCCCOc2c(Cl)cc(C3=NCCO3)cc2Cl)on1 [WIN 54954, reference compound] |  |  |  |  |  |  | CC50 [9]: > 100000 nM
CCOC(=O)/C=C/[C@H](CCC(N)=O)NC(=O)[C@@H](CC(=O)[C@@H](NC(=O)SCC)C(C)C)Cc1ccc(C)cc1 [Compound 10, Ethyl-3-(EtSCO-L-ValΨ[COCH2]-L-(p-CH3)Phe-L-Gln)-E-Propenoate] |  |  | > 1000 nM | 11 nM |  |  | EC50 [2]: 180 nM; CC50 ([4]; line of HRV serotype 2): > 1000 nM
CCOC(=O)/C=C/[C@H](CCC(N)=O)NC(=O)[C@@H](CC(=O)[C@H](CC(C)C)NC(=O)SC1CCCC1)Cc1ccccc1 [Compound 8, Ethyl-3-(CyPentylSCO-L-LeuΨ[COCH2]-L-Phe-L-Gln)-E-Propenoate] |  |  | > 100000 nM | 190 nM |  |  | 
